Marks after values point to notes of the source that are not given here. Peptide text beside a SMILES is read from it.
How the values were obtained:
[1] = molecular target: purified human DPP IV enzyme (Homo sapiens, UniProt P27487); assay: Luminescence DPPIV‐GLO DPP IV inhibition biochemical assay (cell‐free system)
Procedure: The luminescence DPPIV‐GLO Protease assay (G8351, Promega, Madison, WI) was performed to measure the DPP IV inhibitory capacity of selected AB7S peptides and S7S peptides. Percent inhibition was calculated for each sample. Results were presented as percent inhibition per log (µg peptide/mL). The inhibitory concentration (IC) values of the peptides were calculated using Origin Pro software (Version 2021, OriginLab Corporation, Northampton, MA, USA).

[2] = molecular target: T1, DPP IV activity in HepG2 cells (Homo sapiens, UniProt P27487); assay: Luminescence DPP IV assay in the cell‐based system (HepG2); conditions: 24 h treatment; for IC20: read-out: DPP IV inhibition IC20
T1 construct: dose‐response in vitro experiments conducted using the HepG2 cell culture; host or cells: HepG2
Procedure: (§1) HepG2 cells were seeded in either 96‐well plates or 6‐well plates for 24 h. For the healthy cell model (NG), cells were incubated in a medium with a healthy/normal glucose level (5.5 mM glucose), and no stimulation was performed. For the insulin‐resistant cell model (HG), cells were stimulated according to the methods used in a previous publication. In brief, cells were treated for 24 h using 25 mM glucose with 100 nM insulin to stimulate insulin resistance in the HepG2 cells. After seeding or insulin‐resistant stimulation, the cells were treated with selected pure AB7S peptides, selected pure S7S peptides, peptide Asp‐Leu‐Asp‐Val (DLDV; peptide with no DPP IV inhibitory capacity), or 1 nM linagliptin (DPP IV inhibitor) for 24 h. […] Treated cells were used to either perform cell viability assays or were collected, centrifuged, and stored at −80°C until being used.
DPP IV inhibition was measured using the luminescence DPPIV‐GLO Protease assay (G8351, Promega, Madison, WI). In brief, treated cells were incubated with three concentrations of selected pure AB7S peptides or selected pure S7S peptides for 24 h, and linagliptin (1 nM) was used as a positive control. Treated cells were collected and stored at −80°C for no more than one week until being used for the DPPIV‐GLO protease assay. Percent inhibition was calculated, and results were presented as percent inhibition per log (µg peptide/mL). The IC values of the peptides were calculated using Origin Pro software (Version 2021, OriginLab Corporation, Northampton, MA, USA).

[3] = tested on: Akt1S1 (AKT1 substrate 1); assay: Insulin receptor phospho antibody microarray: Akt1S1; assay type: cell-based, human; conditions: VP 9.58 µM, HepG2, healthy state, related to the untreated control, p < 0.05
Procedure: (§2) Cells treated with VP (9.58 µM) and the untreated cells were tested using immunoassay proteomics. The IC50 value of VP obtained from the luminescence‐based DPP IV inhibition biochemical assay was used as the treatment concentration. Cells were treated as described in Section 2.4. An insulin receptor microarray was performed according to the manufacturer's instructions to test the protein expression of markers in the insulin signaling pathway (Insulin Receptor Phospho Antibody Array, PIG219, Full Moon BioSystem, Sunnyvale, CA, USA). Array signals were visualized with a 20× objective using a Widefield Fluorescence Microscope (Carl Zeiss AG, Germany) and were analyzed as previously described. Student's t‐test was used to assess the differences between the VP treatment and the negative control.

[4] = tested on: Akt (AKT serine/threonine kinase); assay: Insulin receptor phospho antibody microarray: Akt; assay type: cell-based, human; conditions: VP 9.58 µM, HepG2, healthy state, related to the untreated control, p < 0.05
Procedure: as §2

[5] = tested on: PP2A‐α (Protein phosphatase 2 alpha); assay: Insulin receptor phospho antibody microarray: PP2A‐α; assay type: cell-based, human; conditions: VP 9.58 µM, HepG2, healthy state, related to the untreated control, p < 0.05
Procedure: as §2

IRS‐1 = assay: Western blot IRS‐1 protein expression in HepG2 cells; assay type: cell-based, human; conditions: VP 9.58 µM, IPA 7.86 µM, DLDV 1790 µM, 24 h; for IRS‐1 protein expression, increase over untreated controls: healthy state (NG, 5.5 mM glucose), linagliptin 1 nM; for IRS‐1 protein expression, increase over untreated insulin‐resistant cells: insulin‐resistant state (HG, 25 mM glucose with 100 nM insulin)
Procedure: as §1
(§3) Cells treated with VP (9.58 µM), IPA (7.86 µM), DLDV (1790 µM), or linagliptin (1 nM) and untreated cells were used for western blot. In brief, membranes were incubated with conjugated antibodies for human IRS‐1 (sc‐8038 HRP, 1:100) and Akt‐1 (sc‐5298 HRP, 1:100), or ACCα (sc‐137104 HRP, 1:100) overnight at 4°C and washed. Membranes were also incubated with unconjugated primary antibodies for human Glut 2 (07‐1402, 1:1000), then washed and probed with secondary sheep anti‐mouse and donkey anti‐rabbit antibodies (NA931V and NA934V, 1:2500, 2 h, room temperature; Cytiva, Marlborough, MA, USA). GAPDH (sc‐25778 HRP or sc‐47724, 1:4000) was used as the protein loading control and was used to evaluate the relative expression of each protein. Clarity Western ECL Substrate (Bio‐Rad, Hercules, CA, USA) and ImageQuant 800 System (GE Healthcare, Buckinghamshire, UK) were used for imaging.

Glut 2 [6] = assay: Western blot Glut 2 protein expression in HepG2 cells; assay type: cell-based, human; conditions: for Glut 2 protein expression, increase over untreated controls: healthy state (NG, 5.5 mM glucose), linagliptin 1 nM; for Glut 2 protein expression, increase over untreated controls / Glut 2 protein expression, increase over untreated insulin‐resistant cells: VP 9.58 µM, IPA 7.86 µM, DLDV 1790 µM, 24 h; for Glut 2 protein expression, increase over untreated insulin‐resistant cells: insulin‐resistant state (HG, 25 mM glucose with 100 nM insulin)
Procedure: as §1, §3

[7] = tested on: mTOR (Mechanistic target of rapamycin); assay: Insulin receptor phospho antibody microarray: mTOR; assay type: cell-based, human; conditions: VP 9.58 µM, HepG2, healthy state, related to the untreated control, p < 0.05
Procedure: as §2

[8] = tested on: Shc (SHC‐transforming protein 1); assay: Insulin receptor phospho antibody microarray: Shc; assay type: cell-based, human; conditions: VP 9.58 µM, HepG2, healthy state, related to the untreated control, p < 0.05
Procedure: as §2

IR (Insulin receptor) = assay: Insulin receptor phospho antibody microarray: IR; assay type: cell-based, human; conditions: VP 9.58 µM, HepG2, healthy state, related to the untreated control, p < 0.05
Procedure: as §2

[9] = tested on: IRS‐1 (Insulin receptor substrate 1); assay: Insulin receptor phospho antibody microarray: IRS‐1; assay type: cell-based, human; conditions: VP 9.58 µM, HepG2, healthy state, related to the untreated control, p < 0.05
Procedure: as §2

ACCα = assay: Western blot ACCα protein expression in HepG2 cells; assay type: cell-based, human; conditions: VP 9.58 µM, IPA 7.86 µM, DLDV 1790 µM, 24 h; for ACCα protein expression, change versus untreated controls: healthy state (NG, 5.5 mM glucose), linagliptin 1 nM; for ACCα protein expression, change versus untreated insulin‐resistant cells: insulin‐resistant state (HG, 25 mM glucose with 100 nM insulin)
Procedure: as §1, §3

Glut 2 [10] = assay: Glut 2 immunocytochemical fluorescence confocal microscopy in HepG2 cells; assay type: cell-based, human; conditions: VP 9.58 µM, linagliptin 1 nM; for Glut 2 fluorescence emission, higher than the untreated control: healthy state; for Glut 2 fluorescence emission, increase compared to the untreated insulin‐resistant cells: insulin‐resistant state
Procedure: as §1
The expression of Glut 2 due to the peptide treatment (VP, 9.58 µM) was investigated in HepG2 cells seeded in Ibidi imaging dish (Ibidi, Fitchburg, WI, USA). Cells were treated as described in Section 2.4. The positive control (1 nM linagliptin) was also tested. The immunocytochemical fluorescence confocal microscopy was performed according to a previous procedure. In brief, cells were fixed, permeabilized, blocked, and incubated with Glut 2 antibodies (07‐1402, 1:1000) overnight at 4°C. Cells were then washed twice, incubated with anti‐rabbit IgG secondary antibody (A‐11012; 1:200) for 2 h in the dark, cured with ProLong Gold Antifade Reagent with DAPI (4′,6‐diamidino‐2‐phenylindole), and stored at 4°C until imaging. Cell images were obtained with 63× oil immersion objective (Glut 2: excitation wavelength: 557 nm, emission wavelength: 572 nm; DAPI: excitation wavelength: 353 nm; emission wavelength: 465 nm) using a Carl Zeiss LSM 900 Laser Scanning Microscope (Carl Zeiss AG, Germany).

Akt‐1 = assay: Western blot Akt‐1 protein expression in HepG2 cells; assay type: cell-based, human; conditions: VP 9.58 µM, IPA 7.86 µM, DLDV 1790 µM, 24 h; for Akt‐1 protein expression, increase over untreated controls: healthy state (NG, 5.5 mM glucose), linagliptin 1 nM; for Akt‐1 protein expression, increase over untreated insulin‐resistant cells: insulin‐resistant state (HG, 25 mM glucose with 100 nM insulin)
Procedure: as §1, §3

[11] = tested on: AMPK1/AMPK2 (AMP‐activated protein kinase catalytic subunit alpha‐1/2); assay: Insulin receptor phospho antibody microarray: AMPK1/AMPK2; assay type: cell-based, human; conditions: VP 9.58 µM, HepG2, healthy state, related to the untreated control, p < 0.05
Procedure: as §2

Chain of purified human DPP IV enzyme (P27487 whole entry): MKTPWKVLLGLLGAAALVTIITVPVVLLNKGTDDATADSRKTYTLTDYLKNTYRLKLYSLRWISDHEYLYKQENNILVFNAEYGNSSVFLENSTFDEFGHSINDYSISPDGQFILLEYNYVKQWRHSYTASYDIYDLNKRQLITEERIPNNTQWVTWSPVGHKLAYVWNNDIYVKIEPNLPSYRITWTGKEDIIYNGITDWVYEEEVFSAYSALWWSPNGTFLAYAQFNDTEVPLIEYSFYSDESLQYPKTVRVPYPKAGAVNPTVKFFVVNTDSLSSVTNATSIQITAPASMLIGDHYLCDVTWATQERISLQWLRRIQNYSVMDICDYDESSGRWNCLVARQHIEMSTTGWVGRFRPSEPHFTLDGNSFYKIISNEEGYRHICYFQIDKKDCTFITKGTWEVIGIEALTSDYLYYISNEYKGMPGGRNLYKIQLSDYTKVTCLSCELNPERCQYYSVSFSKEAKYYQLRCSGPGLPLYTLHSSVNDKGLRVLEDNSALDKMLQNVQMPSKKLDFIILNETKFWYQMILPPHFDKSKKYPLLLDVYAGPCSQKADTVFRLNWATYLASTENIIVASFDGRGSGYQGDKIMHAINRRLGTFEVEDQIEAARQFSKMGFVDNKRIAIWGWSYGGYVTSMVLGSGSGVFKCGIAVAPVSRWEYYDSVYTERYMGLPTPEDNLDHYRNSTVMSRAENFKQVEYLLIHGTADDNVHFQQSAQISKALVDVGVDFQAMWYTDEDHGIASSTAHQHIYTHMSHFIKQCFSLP
T1 sequence (P27487 whole entry): as above

Q: Which IC20 [1] does the source give for `CC[C@H](C)[C@H](N)C(=O)N1CCC[C@H]1C(=O)N[C@@H](C)C(=O)O` [IPA, Ile‐Pro‐Ala] (H-Ile-Pro-Ala-OH) here?
A: 33.1 µM

Q: And the IC50 [1]?
A: 70.5 µM

Q: And the IC20 [2]?
A: 3.66 µM

Q: What about the IC50 ([2]; read-out: DPP IV inhibition IC50) of the same compound?
A: 7.86 µM

Q: What does the source list for `CC(C)[C@H](N)C(=O)N1CCC[C@H]1C(=O)O` [VP, Val‐Pro] (H-Val-Pro-OH; N-terminus and C-terminus assumed)?
A: Akt1S1 Phosphorylated/Non‐phosphorylated ratio [3]: 1.3^* Fold Change; Akt Phosphorylated/Non‐phosphorylated ratio [4]: 3.9^* Fold Change; PP2A‐α Phosphorylated/Non‐phosphorylated ratio [5]: 2.6^* Fold Change; IRS‐1 protein expression, increase over untreated controls (IRS‐1): > 50%; IRS‐1 protein expression, increase over untreated insulin‐resistant cells (IRS‐1): > 25%; IC20 [1]: 200 µM; Power in increasing Glut 2 protein expression relative to the digested adzuki bean β‐vignin protein (Glut 2 [6]; HepG2, comparison based on previous data): > 100 times; Glut 2 protein expression, increase over untreated controls (Glut 2 [6]): > 25%; Glut 2 protein expression, increase over untreated insulin‐resistant cells (Glut 2 [6]): > 25%; mTOR Phosphorylated/Non‐phosphorylated ratio [7]: 3.6^* Fold Change; Shc Phosphorylated/Non‐phosphorylated ratio [8]: 3.2^* Fold Change; IR Phosphorylated/Non‐phosphorylated ratio (IR (Insulin receptor)): 1.7^* Fold Change; IRS‐1 Phosphorylated/Non‐phosphorylated ratio [9]: 0.2^* Fold Change; ACCα protein expression, change versus untreated controls (ACCα): no changes; ACCα protein expression, change versus untreated insulin‐resistant cells (ACCα): not different; Glut 2 fluorescence emission, higher than the untreated control (Glut 2 [10]): 36%; Glut 2 fluorescence emission, increase compared to the untreated insulin‐resistant cells (Glut 2 [10]): > 14%; IC20 [2]: 4.69 µM; Akt‐1 protein expression, increase over untreated controls (Akt‐1): > 25%; Akt‐1 protein expression, increase over untreated insulin‐resistant cells (Akt‐1): > 25%; AMPK1/AMPK2 Phosphorylated/Non‐phosphorylated ratio [11]: 3.5^* Fold Change

Q: `CC#CCn1c(N2CCC[C@@H](N)C2)nc2c1c(=O)n(Cc1nc(C)c3ccccc3n1)c(=O)n2C` [linagliptin, Linagliptin, reference compound] was tested. Which “IRS‐1 protein expression, increase over untreated controls” value (IRS‐1) did it give?
A: > 50%

Q: What about the “Glut 2 protein expression, increase over untreated controls” value (Glut 2 [6]) of the same compound?
A: > 25%

Q: And the “ACCα protein expression, change versus untreated controls” value (ACCα)?
A: no changes

Q: And the “Glut 2 fluorescence emission, higher than the untreated control” value (Glut 2 [10])?
A: 36%

Q: What about the “Glut 2 fluorescence emission, increase compared to the untreated insulin‐resistant cells” value (Glut 2 [10]) of the same compound?
A: > 14%

Q: And the “Akt‐1 protein expression, increase over untreated controls” value (Akt‐1)?
A: > 25%

Q: For Asp‐Leu‐Asp‐Val [DLDV], which “IRS‐1 protein expression, increase over untreated controls” value (IRS‐1) is on record?
A: no differences

Q: And the “IRS‐1 protein expression, increase over untreated insulin‐resistant cells” value (IRS‐1)?
A: no differences

Q: And the “Glut 2 protein expression, increase over untreated controls” value (Glut 2 [6])?
A: no differences

Q: What about the “Glut 2 protein expression, increase over untreated insulin‐resistant cells” value (Glut 2 [6]) of the same compound?
A: no differences

Q: What about the “ACCα protein expression, change versus untreated controls” value (ACCα) of the same compound?
A: no differences

Q: What about the “ACCα protein expression, change versus untreated insulin‐resistant cells” value (ACCα) of the same compound?
A: no differences

Q: And the “Akt‐1 protein expression, increase over untreated controls” value (Akt‐1)?
A: no differences

Q: What about the “Akt‐1 protein expression, increase over untreated insulin‐resistant cells” value (Akt‐1) of the same compound?
A: no differences

Q: Which IC20 [1] does the source give for Leu‐Leu‐Ser [LLS] here?
A: 40.1 µM

Q: And the IC20 [2]?
A: 7.13 µM

Q: Which “DPP IV inhibition IC5” value [1] does the source give for Phe‐Asn‐Glu [FNE] here?
A: 5.65 µM

Q: What about the “DPP IV inhibition IC5” value [2] of the same compound?
A: 63.52 µM

Q: Which IC20 [1] does the source give for Pro‐Met [PM] here?
A: 59.4 µM

Q: And the IC20 [2]?
A: 5.14 µM

Source: publication PMC12700049, “Peptides From Adzuki Bean and Soybean Improved Insulin‐AKT Signaling‐Related Pathways in Healthy and Insulin‐Resistant States in Human Liver Cells” (Molecular Nutrition & Food Research, 2025)
